From patent US8652439B2, “Compositions of HSP60 peptides and viral antigens for vaccination and diagnosis” (priority 2005, dated 2014)

Tests used:
IFN-γ = IFN-γ secretion of splenocytes from mice immunized with p15 conjugates, stimulated in vitro with p15; type: in vivo; conditions: spleens 10 days after immunization; p15 25 μg/ml, 3 days
Protocol: (§1) Mice were immunized with the following peptides as described in Example 8 using the following peptides: p15 (SEQ ID NO:11), p32 (SEQ ID NO:13), Ec27-p15 ([…], SEQ ID NO:77), and Mock-p15 ([…], SEQ ID NO:80—the p431 peptide fused to p15).
(§2) Spleens were harvested 10 days after the immunization and splenocytes were cultured with p15 (25 μg/ml) for 3 days. Cell proliferation and IFNγ levels in the supernatants of spleen cell cultures were measured. Results are the average of 3 independent proliferation experiments. Ec27-Ep15* and Ec27-Ep15** are two identical but independent groups in the same experiment.

BALB/c lymph node cells = assay: Proliferative response of lymph node cells to overlapping GroEL peptides after immunization with E. coli bacteria or GroEL; type: cell-based, BALB/c mice; conditions: mice immunized with E. coli bacteria or GroEL; peptides 20 μg/ml
splenocytes [1] = assay: Proliferation of splenocytes from mice immunized with p15 conjugates, stimulated in vitro with p15; type: in vivo; conditions: spleens 10 days after immunization; p15 25 μg/ml, 3 days
Protocol: as §1, §2

lymph node cells = assay: Proliferative response of lymph node cells after immunization with the Ec27 peptide; type: in vivo, mice
[2] = system: sera from WNV-exposed human subjects; assay: ELISA recognition of WNV peptides by human sera; type: binding
Protocol: Sera from WNV-exposed and non-exposed human subjects was assayed for antibodies recognizing the novel WNV peptide antigens, p15 (SEQ ID NO:11) and p17 (SEQ ID NO:21). FIG. 17 presents the results of an ELISA test in which the p15 and p17 served as the antigen, human sera were used as the primary antibody and HRP-conjugated anti-human Abs were used as the secondary antibody. RLU are the relative luminescence units produced by HRP activity on the luminal substrate.
Sera S2 and S6 are from human that were not infected with WNV while sera S1, S3-S5 and S7 are from human that had history of WNV infection.

[3] = system: serum from WNV-infected mice; assay: ELISA recognition of peptides by serum from WNV-infected mice; type: binding; conditions: peptide 1 μg/well; sera 1:40 dilution
Protocol: (§3) ELISA tests were performed according to the method described by Martin et al (Martin et al, 2000) with slight modifications. Briefly, microtiter plates were coated and incubated overnight at 4° C. with 100 μl of the different peptides (1 μg/well) or WNV antigen diluted 1:700 in coating buffer (NaHCO3, pH=9.6). After incubation, the coating buffer was decanted and the plates were washed twice in PBS containing 0.05% Tween 20 and 0.2% sodium azide (washing buffer). After blocking for 1 h with a 200 μl/wen of PBS containing 0.05% Tween 20 and 2.5% nonfat dry milk, the plates were washed 4 times in washing buffer and 100 μl of IVIG-IL or mouse sera at 1:40 dilution were added to each well (2-4 wells per sample). Negative and positive controls of human or mouse sera were tested in each plate. […] The color intensity was measured by ELISA-reader (Dynatec MR 5000) at the absorbance of 405 nm.
(§4) Next, it was examined whether the candidate epitope is recognized by a serum immunoglobulin pool taken from Israeli donors (IVIG-IL), which contains anti-WNV Abs. […] After blocking and washing, IVIG-IL was added at 1:40 dilution and binding was detected. […]

IVIG-IL (anti-WNV Abs) = assay: ELISA recognition of peptides by IVIG-IL; type: binding, human; conditions: peptide 1 μg/well; IVIG-IL 1:40 dilution
Protocol: as §3, §4

WNV [4] = assay: Protective efficacy of immunization against WNV challenge (mortality); type: in vivo, BALB/c mice; conditions: for Mortality (% deaths) / Mortality (dead of total): 3 immunizations, 10^6 pfu WNV, 21 days post challenge, 5 experiments; for Protective efficacy against WNV challenge: summary of 5 experiments
WNV-Ag [5] = assay: ELISA of anti-WNV Abs in sera of immunized mice; type: in vivo; conditions: 7 days after 3rd immunization; sera 1:40
Protocol: FIG. 11. Anti-WNV Abs in the sera of mice immunized with different peptides or with WNV Ag. (A) Mice were immunized 3 times with the different peptides or WNV-Ag at 7 day intervals. Seven days after the 3rd immunization mice were bled and sera were tested as follows. Wells were coated with WNV-Ag (1:700 dilution). After blocking and washing, the different sera were added at 1:40 dilution and binding was detected as described in methods (ELISA). Results are the average of 4 independent ELISA experiments. Bars, ±SD. (B) Isotypes of Anti-WNV antibodies.
as §3, with “sample).” for “sample). Negative and positive controls of human or mouse sera were tested in each plate.”, “nm. […]” for “nm.”

WNV-Ag [6] = assay: Isotypes of anti-WNV antibodies (ELISA); type: in vivo, mice
Protocol: Plates were coated with the WNV-Ag diluted 1:700 in coating buffer. After overnight incubation at 4° C., blocking and washing, various dilutions of mouse sera were added in triplicates. Negative and positive controls of mouse sera were tested in each plate. Total IgG assessment was performed using HRP-Streptavidin-conjugated anti-mouse IgG (SouthernBiotech). For antibody isotype identification, incubation with biotin-conjugated anti-mouse IgG1, IgG2a, IgG2b, IgG3, IgA and IgM antibodies (PharMingen, San Diego, Calif.) was followed by incubation with 1:1000 diluted HRP-Streptavidin (Jackson Laboratories, West Grove, Pa.). After substrate addition the color intensity was measured by ELISA-reader at 405 nm.
Next, it was examined whether p32 immunization and sublethal infection with WNV induce similar isotypes of anti-WNV antibodies. WNV-Ag was used as the antigen in the ELISA plates.

splenocytes [7] = assay: Proliferation of splenocytes from p32-immunized mice after in vitro stimulation; type: in vivo; conditions: in vitro stimulation with WNV antigen
IFNγ = IFNγ secretion of splenocytes from p32-vaccinated mice; type: in vivo; conditions: in vitro stimulation with WNV antigen
WNV [8] = assay: Virus levels in brain after p32 immunization and WNV challenge (RT-PCR and plaque assay); type: in vivo, mice; conditions: day 7 after challenge with 10^6 pfu WNV; immunized 3 times
[9] = system: splenocytes from WNV-infected mice; assay: Proliferation of splenocytes from WNV-infected mice after in vitro stimulation with peptides; type: cell-based; conditions: in vitro stimulation with peptide
[10] = sera of p32-immunized versus WNV-infected mice

In the case of KKARVEDALHATRAAVEEGV [Ec27], the “IFN-γ secretion of spleen cells in the presence of p15” value (IFN-γ) is reported as “did not induce significant proliferation and IFN-γ secretion”, the “Proliferative response of draining LNC to GroEL peptide” value (BALB/c lymph node cells) is reported as “highly immunogenic” and the “Proliferation of spleen cells in the presence of p15” value (splenocytes [1]) is reported as “did not induce significant proliferation”. For the same sequence, the “Proliferative response of lymph node cells of Ec27-immunized BALB/c mice” value (lymph node cells; 20 μg Ec27 in IFA s.c., 10 days later) was “responded the Ec27 peptide and to the whole GroEL molecule, but not to the control peptide AcR 259-271” and the “Proliferative response of mouse strains with different MHC haplotypes” value (lymph node cells; BALB/c, BALB/k, BALB/b, SJL) was “all four different mouse strains responded specifically”.

For LVTVNPFVSVATANS [p15], the “Recognition by sera of WNV-exposed and unexposed human subjects” value ([2]; ELISA, peptide as antigen) was “specifically recognized by WNV-exposed sera and not by sera from unexposed subjects”, the “Recognition by sera from Dengue-infected humans” value ([2]; data not shown) was “did not recognize” and the “Recognition by serum from WNV-infected mice” value [3] was “specifically recognized”. The “Recognition by IVIG-IL” value (IVIG-IL (anti-WNV Abs)) was “recognized by IVIG-IL”, the “Mortality (% deaths)” value (WNV [4]) was “(53%)” and the “Mortality (dead of total)” value (WNV [4]) was 8/15. For the same sequence, the “Protective efficacy against WNV challenge” value (WNV [4]) was “slight protective efficacy”.

For NEDQKIGIEIIKRALKILVTVNPFVSVATANS [p32], the “WNV-specific Abs in sera” value (WNV-Ag [5]) was “high titer of WNV-specific Abs as compared to immunization with p15 alone”, the “WNV-specific IgA and IgG3” value (WNV-Ag [6]; sera of p32-immunized and WNV-infected mice) was “Neither IgA nor IgG3 specific for WNV were detected” and the “Anti-WNV IgG1 and IgG2a levels” value (WNV-Ag [6]; [10]) was “similarly high”. The “WNV-specific IgG2b levels” value (WNV-Ag [6]; [10]) was “higher in sera from WNV-infected mice”, the “WNV-specific IgM levels” value (WNV-Ag [6]; [10]) was “higher in p32-immunized mice” and the “Proliferation of splenocytes from immunized mice” value (splenocytes [7]) was “proliferated in response to in vitro stimulation with WNV antigen”. For the same sequence, the “Mortality (% deaths)” value (WNV [4]) was “(10%)”, the “Mortality (dead of total)” value (WNV [4]) was 2/21 and the “Protective efficacy against WNV challenge” value (WNV [4]) was “a high degree of protection”. For the same sequence, the “IFNγ secretion of splenocytes from immunized mice” value (IFNγ) was “secretion of high levels of IFNγ”, the “Virus levels in the brain” value (WNV [8]) was “no virus was detected” and the “Proliferation of T cells from WNV-infected mice” value [9] was “proliferated in response to in vitro stimulation”.
